Values of other authors as cited in patent publication EP4603080A1 (Adocia, priority 2024, dated 2025).

Conditions: read-out: EC50value; potency, WO2022129526 Assay 2, Tables 4b and 4c

EC50: ~0.011 nM
Substance: N-alpha-[(S)-4-Carboxy-4-(19-carboxynonadecanoylamino)butyryl]-[Glu14,Arg17,Pro37]-pramlintide [cagrilintide]
